Measurements as given in paper PMC3368247 (Frontiers in Pharmacology, 2012).

Key:
Format in all cases: cell-based
Settings in all cases: 10 μM
[1] = target: Cx32 GJ channels (Rattus norvegicus, UniProt P08033); test: Cx32 junctional current, dual whole-cell voltage-clamp in N2A cells
[2] = target: channels built out of Cx36 (Homo sapiens, UniProt Q9UKL4); test: Cx36 junctional current, dual whole-cell patch-clamp
[3] = target: Cx46 GJ channels (Rattus norvegicus, UniProt P29414); test: Cx46 junctional current, dual whole-cell voltage-clamp in N2A cells

Chain of channels built out of Cx36 (Q9UKL4 whole entry): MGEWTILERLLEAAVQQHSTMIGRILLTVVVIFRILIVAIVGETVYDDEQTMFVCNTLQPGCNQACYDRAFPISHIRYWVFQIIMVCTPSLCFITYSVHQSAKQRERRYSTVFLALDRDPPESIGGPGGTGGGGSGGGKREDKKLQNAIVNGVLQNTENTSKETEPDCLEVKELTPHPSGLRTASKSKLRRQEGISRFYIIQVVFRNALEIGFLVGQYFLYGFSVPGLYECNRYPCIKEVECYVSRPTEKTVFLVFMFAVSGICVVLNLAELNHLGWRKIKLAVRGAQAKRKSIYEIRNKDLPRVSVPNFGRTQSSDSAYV
Chain of Cx32 GJ channels (P08033 whole entry): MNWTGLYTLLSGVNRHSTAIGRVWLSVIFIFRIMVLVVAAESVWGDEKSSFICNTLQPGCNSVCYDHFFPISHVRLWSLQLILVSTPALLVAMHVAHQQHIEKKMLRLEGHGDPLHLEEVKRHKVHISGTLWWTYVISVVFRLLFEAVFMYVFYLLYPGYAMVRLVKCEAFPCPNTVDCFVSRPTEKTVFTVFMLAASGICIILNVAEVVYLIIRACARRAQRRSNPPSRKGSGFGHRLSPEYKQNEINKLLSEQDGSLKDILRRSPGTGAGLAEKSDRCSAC

Clc1ccccc1C(c1ccccc1)(c1ccccc1)n1ccnc1 [Clotrimazole]
no effect: inhibition of Cx32 GJ channel current / reduction of junction conductance [1] | effect on channels built out of Cx36 [2] | inhibition of Cx46 GJ channel current / reduction of junction conductance [3]
